Measured values reported in US20030190325A1, “Novel peroxiredoxin defense system from mycobacterium tuberculosis” (priority 2002, published 2003).
Read-outs that look alike come from different tables or passages of the source.

How the values were obtained:
[1] = molecular target: T1, Lpd, SucB, AhpD (Mycobacterium tuberculosis, UniProt P9WHH9+P9WIS7+P9WQB5); experiment: DTNB screening assay (Lpd/SucB/AhpD protein mixture); assay type: biochemical; conditions: for Target: which of the 3 enzymes (AhpD, Lpd, SucB) is inhibited, and mode of inhibition
T1 construct: Lpd and SucB ORFs were amplified by PCR from M. tuberculosis H37Rv genomic DNA; The AhpD open reading frame (ORF) was amplified by PCR with engineered 5′ NdeI and 3′ NheI sites and cloned into pET11c; made in house; host or cells: E. coli BL21(DE3), pET11c
T1 sequence (P9WHH9 1-464): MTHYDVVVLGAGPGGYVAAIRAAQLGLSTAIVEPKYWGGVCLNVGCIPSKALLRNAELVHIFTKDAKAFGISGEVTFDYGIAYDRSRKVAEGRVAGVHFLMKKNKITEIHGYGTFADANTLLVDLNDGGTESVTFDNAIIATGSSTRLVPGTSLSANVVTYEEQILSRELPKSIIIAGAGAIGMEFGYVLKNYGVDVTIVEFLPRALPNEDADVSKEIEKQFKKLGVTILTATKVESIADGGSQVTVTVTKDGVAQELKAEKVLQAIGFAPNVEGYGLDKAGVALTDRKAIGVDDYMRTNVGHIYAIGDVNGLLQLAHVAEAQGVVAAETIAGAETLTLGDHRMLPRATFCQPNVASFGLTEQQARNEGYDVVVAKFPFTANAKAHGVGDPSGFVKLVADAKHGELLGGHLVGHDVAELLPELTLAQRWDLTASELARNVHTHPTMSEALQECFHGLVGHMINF
T1 sequence (P9WIS7 1-553): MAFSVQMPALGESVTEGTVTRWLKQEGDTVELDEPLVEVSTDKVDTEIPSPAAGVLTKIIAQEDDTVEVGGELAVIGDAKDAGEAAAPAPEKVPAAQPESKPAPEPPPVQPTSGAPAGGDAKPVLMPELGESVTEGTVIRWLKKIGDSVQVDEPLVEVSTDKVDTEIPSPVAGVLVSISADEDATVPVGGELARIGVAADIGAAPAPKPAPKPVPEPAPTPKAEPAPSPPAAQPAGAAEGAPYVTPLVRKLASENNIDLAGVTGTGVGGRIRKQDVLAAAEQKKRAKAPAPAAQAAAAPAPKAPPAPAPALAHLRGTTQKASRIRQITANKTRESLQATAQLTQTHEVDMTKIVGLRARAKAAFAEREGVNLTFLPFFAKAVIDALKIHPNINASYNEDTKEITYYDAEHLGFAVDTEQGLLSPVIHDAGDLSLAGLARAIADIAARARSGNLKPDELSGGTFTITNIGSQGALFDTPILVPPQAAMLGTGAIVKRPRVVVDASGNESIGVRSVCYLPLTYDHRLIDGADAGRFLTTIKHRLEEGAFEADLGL
T1 sequence (P9WQB5 1-177): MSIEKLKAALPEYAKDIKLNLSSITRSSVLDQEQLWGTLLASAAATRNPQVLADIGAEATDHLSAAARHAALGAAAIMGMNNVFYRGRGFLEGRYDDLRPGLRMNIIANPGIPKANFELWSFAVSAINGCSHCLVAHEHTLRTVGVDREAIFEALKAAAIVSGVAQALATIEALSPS
Description: The screen was performed in Falcon Microtest 384-well 30 μl assay plates using the DTNB (5,5′-dithiobis-(2-nitrobenzoic acid)) assay.
The protein mixture (200 nM Lpd, 350 nM SucB, 36 nM AhpD) was dispensed into each well in 10 μl using a multi-channel pump dispenser. Compounds were added to the protein mix by a single dip (1 nl) with a pin-transfer robot. Plates with the protein mix and added compounds were incubated on a shaker for 30 min at room temperature. The concentration of compounds during incubation was 50 μM. Reaction mixture (200 μM NADH, 150 μM DTNB in 100 mM potassium phosphate, pH 7.0, 2 mM EDTA) was added to each well in 10 μl after pre-incubation and the plate was read at 405 nm for “time 0 min” values. Plates were incubated on a shaker for 30 min at room temperature to complete the reaction and were read at 405 nm for “time 30 min.” “Time 0 min” values were subtracted from “time 30 min” values and were taken as an end-point value for the assay. Control wells contained only protein and reaction mixtures without any compounds added and were taken as 100% activity values. The final concentrations of all components during the reaction were as follows: Lpd, 100 nM; SucB, 175 nM; AhpD, 18 nM; NADH, 100 μM; DTNB, 75 μM; potassium phosphate, 50 mM; EDTA, 1 mM; compounds, 25 μM.

[2] = molecular target: T2, AhpD (Mycobacterium tuberculosis, UniProt P9WQB5); experiment: Inhibition constant for the enzyme identified as target: AhpD; assay type: biochemical
T2 construct: The AhpD open reading frame (ORF) was amplified by PCR with engineered 5′ NdeI and 3′ NheI sites and cloned into pET11c; made in house; host or cells: E. coli BL21(DE3), pET11c
T2 sequence (P9WQB5 1-177): T1 sequence (P9WQB5 1-177)

Structure (SMILES)	IC50 ([1]; DTNB assay, 100 nM Lpd, 175 nM SucB, 18 nM AhpD, 100 μM NADH, 75 μM DTNB, pH 7.0, read-out: IC50) [µM]	IC50 [1] [µM]	Target [1]	Ki [2] [µM]
O=C(O)c1ccc(N2C(=O)/C(=C/c3ccc(-c4ccc(Br)cc4)o3)C=C2c2ccccc2)cc1 [2150-0146]	4.2	–	–	–
O=C(O)CN1C(=O)/C(=C\c2ccc(-c3cccc(Cl)c3Cl)o2)SC1=S [3229-2113]	–	8.2	SucB (Com- pet Inhib.)	–
O=C(O)CCN1C(=O)/C(=C\c2ccc(-c3cccc(C(F)(F)F)c3)o2)SC1=S [2556-0286]	–	4.4	SucB (Com- pet Inhib.)	–
Cc1cc(C)cc(/N=C2/NC(=O)/C(=C\c3cc(Br)c(O)c([N+](=O)O)c3)S2)c1 [2368-0687]	–	10.5	AhpD (Com- pet Inhib.)	5
